Experimental data: patent publication US20230045421A1 (priority 2018, published 2023)

Each compound was assayed on HBV rcDNA (assay: HepDE19 assay with bDNA quantitation of HBV rcDNA). Conditions: HepDE19 assay, inhibition of formation of rcDNA; read-out: DE-19bDNA EC50.
Format: cell-based, hepatitis B virus
Method: HepDE19 Assay with bDNA Quantitation of HBV rcDNA:
HepDE19 cell culture system is a HepG2 (human hepatocarcinoma) derived cell line that supports HBV DNA replication and cccDNA formation in a tetracycline (Tet)-regulated manner and produces HBV rcDNA and a detectable reporter molecule dependent on the production and maintenance of cccDNA (Guo, et al., 2007, J. Virol. 81:12472-12484).
HepDE19 (50,000 cells/well) were plated in 96-well collagen-coated tissue-culture treated microtiter plates in DMEM/F12 medium supplemented with 10% fetal bovine serum, 1% penicillin-streptomycin and 1 μg/mL tetracycline and incubated in a humidified incubator at 37° C. and 5% CO2 overnight. Next day, the cells were switched to fresh medium without tetracycline and incubated for 4 hours at 37° C. and 5% CO2. The cells were treated with fresh Tet-free medium with compounds at concentrations starting at 25 μM and a serial, […], 8-point, titration series in duplicate. The final DMSO concentration in the assay was 0.5%. The plates were incubated for 7 days in a humidified incubator at 37° C. and 5% CO2. Following a 7 day-incubation, the level of rcDNA present in the inhibitor-treated wells was measured using a Quantigene 2.0 bDNA assay kit (Affymetrix, Santa Clara, Calif.) with HBV specific custom probe set and manufacturers instructions. Concurrently, the effect of compounds on cell viability was assessed using replicate plates, plated at a density of 5,000 cells/well and incubated for 4 days, to determine the ATP content as a measure of cell viability using the cell-titer glo reagent (CTG; Promega Corporation, Madison, Wis.) as per manufacturer's instructions. The plates were read using a Victor luminescence plate reader (PerkinElmer Model 1420 Multilabel counter) and the relative luminescence units (RLU) data generated from each well was calculated as % inhibition of the untreated control wells and analyzed using XL-Fit module in Microsoft Excel to determine EC50 and EC90 (bDNA) and CC50 (CTG) values using a 4-parameter curve fitting algorithm.

SMILES | EC50
CC(c1cnc(NCc2ncn(C)n2)c2ccccc12)N(C)C(=O)Nc1ccc(F)c(Cl)c1 (single isomer, unassigned) [Compound 245, 3-(3-Chloro-4-fluorophenyl)-1-methyl-1-(1-(1-(((1-methyl-1H-1,2,4-triazol-3-yl)methyl)amino)isoquinolin-4-yl)ethyl)urea] | 13000 nM
CC(c1c[nH]c(=O)c2ccccc12)N(CCS(N)(=O)=O)C(=O)Nc1ccc(F)c(Cl)c1 (single isomer, unassigned) [Compound 120, 2-(3-(3-Chloro-4-fluorophenyl)-1-(1-(1-oxo-1,2-dihydroisoquinolin-4-yl)ethyl)ureido) ethanesulfonamide] | 18000 nM
CC(c1c[nH]c(=O)c2ccccc12)N(CC1COC(C)(C)OC1)C(=O)Nc1ccc(F)c(Cl)c1 (single isomer, unassigned) [Compound 272, 3-(3-Chloro-4-fluorophenyl)-1-((2,2-dimethyl-1,3-dioxan-5-yl)methyl)-1-(1-(1-oxo-1,2-dihydroisoquinolin-4-yl)ethyl)urea] | 1800 nM
CC(c1cn(Cc2c[nH]nn2)c(=O)c2ccccc12)N(C)C(=O)Nc1ccc(F)c(Cl)c1 (single isomer, unassigned) [Compound 277, 1-(1-(2-((1H-1,2,3-Triazol-4-yl)methyl)-1-oxo-1,2-dihydroisoquinolin-4-yl)ethyl)-3-(3-chloro-4-fluorophenyl)-1-methylurea] | 790 nM
CC(c1c[nH]c(=O)c2ccccc12)N(CCCC#N)C(=O)Nc1ccc(F)c(Cl)c1 (single isomer, unassigned) [Compound 114, 3-(3-Chloro-4-fluorophenyl)-1-(3-cyanopropyl)-1-(1-(1-oxo-1,2-dihydroisoquinolin-4-yl)ethyl)urea] | 1900 nM
CC(c1cnc(NCCN)c2ccccc12)N(C)C(=O)Nc1ccc(F)c(Cl)c1 (single isomer, unassigned) [Compound 249, 1-(1-(1-((2-Aminoethyl)amino)isoquinolin-4-yl)ethyl)-3-(3-chloro-4-fluorophenyl)-1-methylurea] | 14000 nM
CC(c1c[nH]c(=O)c2ccccc12)N(C[C@@H]1CCCO1)C(=O)Nc1ccc(F)c(Cl)c1 (single isomer, unassigned) [Compound 160] | 23000 nM
CC(c1cnc(OCc2nc[nH]n2)c2ccccc12)N(C)C(=O)Nc1ccc(F)c(Cl)c1 (single isomer, unassigned) [Compound 145, 1-(1-(1-((1H-1,2,4-Triazol-3-yl)methoxy)isoquinolin-4-yl)ethyl)-3-(3-chloro-4-fluorophenyl)-1-methylurea] | 4200 nM
CC(c1c[nH]c(=O)c2ccccc12)N(C(=O)Nc1ccc(F)c(Cl)c1)C1CC1 (single isomer, unassigned) [Compound 67, 3-(3-Chloro-4-fluorophenyl)-1-cyclopropyl-1-(1-(1-oxo-1,2-dihydroisoquinolin-4-yl)ethyl)urea] | 7900 nM

Same assay, conditions: HepDE19 assay, inhibition of formation of relaxed circular DNA (rcDNA), bDNA quantitation; read-out: DE-19bDNA EC50

SMILES | EC50
CCN(C(=O)Nc1ccc(F)cc1)C(C)c1c[nH]c(=O)c2c(F)c(F)ccc12 (single isomer, unassigned) [Compound 465, 1-(1-(7,8-Difluoro-1-oxo-1,2-dihydroisoquinolin-4-yl)ethyl)-1-ethyl-3-(4-fluorophenyl)urea] | 19 nM
CCN(C(=O)Nc1ccc(F)c(Cl)c1)C(C)c1c[nH]c(=O)c2cc(F)c(F)cc12 (single isomer, unassigned) [Compound 406, 3-(3-Chloro-4-fluorophenyl)-1-(1-(6,7-difluoro-1-oxo-1,2-dihydroisoquinolin-4-yl)ethyl)-1-ethylurea] | 2100 nM
CC(c1cn(C)c(=O)c2c(F)c(F)ccc12)N(C)C(=O)Nc1ccc(F)c(Cl)c1 (single isomer, unassigned) [Compound 332, 3-(3-Chloro-4-fluorophenyl)-1-(1-(7,8-difluoro-2-methyl-1-oxo-1,2-dihydroisoquinolin-4-yl)ethyl)-1-methylurea] | 3700 nM
CC(c1c[nH]c(=O)c2cc(F)c(F)cc12)N(CCCO)C(=O)Nc1ccc(F)c(Cl)c1 (single isomer, unassigned) [Compound 289, 3-(3-Chloro-4-fluorophenyl)-1-(1-(6,7-difluoro-1-oxo-1,2-dihydroisoquinolin-4-yl)ethyl)-1-(3-hydroxypropyl)urea] | 370 nM

Same assay, conditions: Hepatitis B virus, HepDE19, HepDE19 assay, inhibition of formation of rcDNA; read-out: DE-19bDNA EC50

SMILES | EC50
CC(c1c[nH]c(=O)c2cc(F)ccc12)N(C)C(=O)Nc1ccc(F)cc1 (racemic) [Compound 258, 3-(4-Fluorophenyl)-1-(1-(7-fluoro-1-oxo-1,2-dihydroisoquinolin-4-yl)ethyl)-1-methylurea] | 150 nM
CC(c1c[nH]c(=O)c2ncccc12)N(C)C(=O)Nc1ccc(F)c(Cl)c1 (stereo not drawn) [Compound 153, 3-(3-chloro-4-fluorophenyl)-1-methyl-1-(1-(8-oxo-7,8-dihydro-1,7-naphthyridin-5-yl)ethyl)urea] | 870 nM
CCN(Cc1c[nH]c(=O)c2ccccc12)C(=O)Nc1ccc(F)c(Cl)c1 [Compound 9, 3-(3-Chloro-4-fluorophenyl)-1-ethyl-1-((1-oxo-1,2-dihydroisoquinolin-4-yl)methyl)urea] | 160 nM
CC(c1c[nH]c(=O)c2ccccc12)N(CCCN)C(=O)Nc1ccc(F)c(Cl)c1 (single isomer, unassigned) [Compound 164, 1-(3-Aminopropyl)-3-(3-chloro-4-fluorophenyl)-1-(1-(1-oxo-1,2-dihydroisoquinolin-4-yl)ethyl)urea] | 12000 nM
COc1cccc2c(=O)[nH]cc(C(C)N(C)C(=O)Nc3ccc(F)c(Cl)c3)c12 (single isomer, unassigned) [Compound 265, 3-(3-chloro-4-fluorophenyl)-1-(1-(5-methoxy-1-oxo-1,2-dihydroisoquinolin-4-yl)ethyl)-1-methylurea] | 1500 nM
CC(c1c[nH]c(=O)c2ccccc12)N(CCC(=O)O)C(=O)Nc1ccc(F)c(Cl)c1 (single isomer, unassigned) [Compound 208, 3-(3-(3-Chloro-4-fluorophenyl)-1-(1-(1-oxo-1,2-dihydroisoquinolin-4-yl)ethyl)ureido)propanoic acid] | 3300 nM
CNS(=O)(=O)CCCN(C(=O)Nc1ccc(F)c(Cl)c1)C(C)c1c[nH]c(=O)c2ccccc12 (single isomer, unassigned) [Compound 220, 3-(3-(3-Chloro-4-fluorophenyl)-1-(1-(1-oxo-1,2-dihydroisoquinolin-4-yl)ethyl)ureido)-N-methylpropane-1-sulfonamide] | 140 nM

Same assay, conditions: Hepatitis B virus, HepDE19, HepDE19 assay, inhibition of formation of relaxed circular DNA (rcDNA), bDNA quantitation; read-out: DE-19bDNA EC50

SMILES | EC50
CC(c1cnc(C(=O)O)c2ccccc12)N(C)C(=O)Nc1ccc(F)c(Cl)c1 (single isomer, unassigned) [Compound 325, 4-(1-(3-(3-Chloro-4-fluorophenyl)-1-methylureido)ethyl)isoquinoline-1-carboxylic acid] | 4200 nM

Same assay, conditions: read-out: DE-19bDNA EC50; HepDE19 assay, inhibition of formation of rcDNA

SMILES | EC50
COCCOCCN(C(=O)Nc1ccc(F)c(Cl)c1)C(C)c1c[nH]c(=O)c2ccccc12 (single isomer, unassigned) [Compound 124, 3-(3-Chloro-4-fluorophenyl)-1-(2-(2-methoxyethoxy)ethyl)-1-(1-(1-oxo-1,2-dihydroisoquinolin-4-yl)ethyl)urea] | 560 nM
CC(c1c[nH]c(=O)c2ccccc12)N(CC[C@H](C)O)C(=O)Nc1ccc(F)c(Cl)c1 (single isomer, unassigned) [Compound 214] | 47 nM

Same assay, conditions: read-out: DE-19bDNA EC50; HepDE19 assay, inhibition of formation of relaxed circular DNA (rcDNA), bDNA quantitation

SMILES | EC50
CC(c1c[nH]c(=O)c2c(F)c(F)ccc12)N(C)C(=O)Nc1ccccc1 (single isomer, unassigned) [Compound 437, 1-(1-(7,8-difluoro-1-oxo-1,2-dihydroisoquinolin-4-yl)ethyl)-1-methyl-3-phenylurea] | 140 nM
